Earlier results in patent US20030114534A1, “Pharmaceutical preparation for apthous ulcers” (priority 2001, published 2003).

Test system: apthous lesions
Details: applied locally, 250 mg. in 10 ml. of water, three times a day

CN(C)[C@@H]1C(O)=C(C(N)=O)C(=O)[C@@]2(O)C(O)=C3C(=O)c4c(O)ccc(Cl)c4[C@@](C)(O)[C@H]3C[C@@H]12 [Aureomycin]
analgesic effect lasting: one-half to two
